In patent US6008395A, “Platinum (IV) complex, production process thereof and carcinostatic agent containing the same” (priority 1995, dated 1999):
Where two headings read alike, the source gives them in different places.

Legend:
[1] = Stability in an aqueous solution of hydrochloric acid, half life; type: physicochemical; conditions: 37° C., 50 μM complex, in the dark
Description: Stability of each of the thus obtained complexes in an aqueous solution of hydrochloric acid at 37° C. is shown below in terms of its half life.
The measurement was carried out at a complex concentration of 50 μM at 37° C. in the dark.

[2] = In vitro reduction by an ascorbic acid salt, half life; type: physicochemical; conditions: 50 μM complex, pH 7.5 (50 mM HEPES-NaOH), 37° C., dark; for Half life (reduction), 5 mM: 5 mM ascorbic acid salt; for Half life (reduction), 100 mM: 100 mM ascorbic acid salt
Description: Test results of the in vitro reduction of the thus obtained complexes by an ascorbic acid salt are shown below in terms of half life.
The measurement was carried out at a complex concentration of 50 μM, pH 7.5 (50 mM HEPES-NaOH buffer), at 37° C. in the dark.

[3] = tested on: L 1210; type: in vivo, CDF1 mouse; conditions: days 1, 5 and 9; for T/C %: 125 or more judged effective
Description: ip: On the day 0, L 1210 (10^5 cells/mouse) was transplanted into the abdominal cavity of each CDF1 mouse, and each of the platinum complexes was intraperitoneally administered on the day 1, day 5 and day 9 (Q04D×03). Using 5 animals in one group, T/C % (T: treated, C: control) is calculated from survived days. A T/C % value of 125 or more was judged effective. The number of survived (or tumor bearing) animals is shown as n/5. A total of 10 mice were used in the control.
Carcinostatic effect ip--ip, L 1210, three administrations on days 1, 5 and 9
L 1210 (10^5 cells/mouse), one group=5 CDF1 mice, ip administration on the days 1, 5 and 9.

[4] = tested on: L 1210; assay: (Oral) carcinostatic effect L 1210, ip-po; type: in vivo, CDF1 mouse; conditions: Q02D×05, suspension in olive oil, 140% or more judged effective
Description: po: On the day 0, L 1210 (10^5 cells/mouse) was transplanted into the abdominal cavity of each CDF1 mouse, and each of the platinum complexes was orally administered on the day 1, day 3, day 5, day 7 and day 9 (Q02D×05), or on the day 1 to day 5 (Q01D×05). The oral administration was carried out with a 10, 7.5 or 5 times higher dose than the optimum amount of each platinum complex by ip (T/C % of ip; 100 mg/kg, 75 mg/kg or 50 mg/kg, respectively). A value of 140% or more was judged effective.
(Oral) carcinostatic effect L 1210, ip-po, every two days Q02D×05
L 1210 (10^5 cells/mouse); one group=5 CDF1 mice; Suspension in olive oil was administered into the stomach through a catheter.

[5] = Behaviour in strongly acidic gastric juice (1 N HCl, pH 0.1); type: physicochemical; conditions: orally administered
[6] = clinical trial; cited from earlier work

Row | SMILES | Half life, 0.05 M HCl [1] | Half life, 1 M HCl [1] [h] | Half life (reduction), 5 mM [2] [h] | Half life (reduction), 100 mM [2] [min] | T/C % ([3]; 12.5 mg/kg ip) [%] | T/C % ([3]; 25 mg/kg ip) [%] | T/C % ([3]; 50 mg/kg ip) [%] | T/C % ([3]; 100 mg/kg ip) [%] | number of survived (or tumor bearing) animals (n/5) ([3]; 25 mg/kg ip) | T/C % ([4]; 5 mg/kg po) [%] | T/C % ([4]; 10 mg/kg po) [%] | T/C % ([4]; 15 mg/kg po) [%] | number of survived (or tumor bearing) animals (n/5) ([3]; 50 mg/kg ip) | T/C % ([4]; 2.5 mg/kg po) [%] | one carboxylic acid substituted by Cl [5] | clinical development / side effects [6]
1 | CCCC(=O)[O-].NC1CCCCC1N.O=C([O-])C(=O)[O-].[Cl-].[Pt+4] [C4--OHP · Cl, [PtCl(OCOC3 H7) (oxalato) (lR,2R-dach)]] | > 50 h | 6.1 | 0.6 | < 6 | 130 | 145 | 195 | 63 |  |  |  |  |  |  |  | 
2 | CCCCC(=O)[O-].NC1CCCCC1N.O=C([O-])C(=O)[O-].[Br-].[Pt+4] [C5--OHP · Br, t,t,c,c-[PtBr(OCOC4 H9)(ox)(1R,2R-dach)]] |  |  |  |  |  | 395 | 107 |  | 4/5 | 160 | 163 | 73 |  |  |  | 
3 | CCCCC(=O)[O-].NC1CCCCC1N.O=C([O-])C(=O)[O-].[Cl-].[Pt+4] [C5--OHP · Cl, t,t,c,c-[PtCl(OCOC4 H9)(ox)(1R,2R-dach)]] | > 50 h | 7.4 | 0.8 | < 6 |  | 168 | 283 | 88 |  | 214 | 143 | 60 | 4/5 | 140 |  | 
4 | CCCCCC(=O)[O-].NC1CCCCC1N.O=C([O-])C(=O)[O-].[Br-].[Pt+4] [C6--OHP · Br] |  |  |  |  |  | 373 | 96 | 69 | 4/5 | 173 | 180 | 88 |  |  |  | 
5 | CCCCCC(=O)[O-].NC1CCCCC1N.O=C([O-])C(=O)[O-].[Cl-].[Pt+4] [C6--OHP · Cl, [PtCl (OCOC5 H11) (oxalato) (1R,2R-dach)]] | N.D. (significant decrease in concentration was not observed) | 8.9 | 1.2 | < 6 |  | 173 | 280 | 80 |  | 191 | 168 | 98 | 1/5 | 143 |  | 
6 | CCCCCCC(=O)[O-].NC1CCCCC1N.O=C([O-])C(=O)[O-].[Cl-].[Pt+4] [C7--OHP · Cl, [PtCl(OCOC6 H13) (oxalato) (1R,2R-dach)]] | N.D. (significant decrease in concentration was not observed) | 11.3 | 1.6 | < 6 | 122 | 137 | 176 |  |  | 129 | 151 |  |  | 117 |  | 
7 | CCCC(=O)[O][Pt]12([O]C(=O)CCC)([NH]C3CCCCC3[NH]1)[O]C(=O)C(=O)[O]2 [Complex C4-OHP, t,c,c-[Pt (OCOC3 H7)2 (ox) (1R,2R-dach)]] |  |  |  |  |  |  |  |  |  |  |  |  |  |  | gradually substituted by Cl | 
8 | CCCCC(=O)O.CCCCC(=O)O.N[C@@H]1CCCC[C@H]1N.O=C(O)C(=O)O.[Pt] [Complex C5-OHP, t,c,c-[Pt (OCOC4 H9)2 (ox) (1R,2R-dach)]] |  |  |  |  |  |  |  |  |  |  |  |  |  |  | gradually substituted by Cl | 
9 | CCCCCC(=O)[O-].CCCCCC(=O)[O-].NC1CCCCC1N.O=C([O-])C(=O)[O-].[Pt+4] [Complex C6-ORP, t,c,c-[Pt (OCOC5 H11)2 (ox) (1R,2R-dach)]] |  |  |  |  |  |  |  |  |  |  |  |  |  |  | gradually substituted by Cl | 
10 | N[C@@H]1CCCC[C@H]1N.[Cl][Pt+2]([Cl])([Cl])[Cl] [tetraplatin] |  |  |  |  |  |  |  |  |  |  |  |  |  |  |  | clinical development has been suspended due to the side effects, such as toxicity
